One assay has as its target T1, Human 5-HT1B receptor (Homo sapiens, UniProt P28222).
T1 construct: expressed in transfected cells; host or cells: CHO
Put plainly: Human 5-HT1B receptor affinity, [3H]-5-HT radioligand binding. The following applies: CHO cell membranes expressing 5-HT1B, [3H]-5-HT 3 nM, 37° C. 45 minutes; assay b); read-out: pKi against 5-HT1B (converted). How it is done:
(§1) b) Human 5-HT1A, 5-HT1B and 5-HT1D Receptor Affinity
(§2) The affinities of the compounds of the invention for the 5-HT1A, 5-HT1B and 5-HT1D receptors may be determined by the following assay.
(§3) Homogenise chinese hamster ovary (CHO) cells expressing 5-HT1A receptors (4×10^7 cells/ml) in Tris buffer and store in 1 ml aliquots. Homogenise CHO cells expressing 5-HT1B receptors (4×10^7 cells/ml) in Tris buffer and store in 1.5 ml aliquots. Homogenise CHO cells expressing 5-HT1D receptors (1×10^8/ml) in Tris buffer and stored in 1 ml aliquots. The binding assays are carried out in a total volume of 500 μl. For each compound to be tested make up seven solutions ranging in concentration from 0.3 mM to 0.3 nM (100× final concentrations). Dispense 5 μl of solution containing the test compound per well and add 100 μl of radioligand at 5× final desired assay concentration, i.e. [^3H]-5-HT 15 nM (final assay concentration: 3 nM) in Tris Mg HCl buffer (pH 7.7) for 5-HT1B/1D receptors and [^3H]WAY100635 2.5 nM (final assay concentration: 0.5 nM) in Tris Mg HCl buffer (pH 7.7) containing 150 μM GPP(NH)p (final assay concentration: 30 μM) for 5-HT1A receptors. Add 400 μl/well of a cell membrane suspension in Tris Mg HCl buffer (pH 7.7) to make a total volume of 505 μl. Incubate at 37° C. for 45 minutes. […] Measure radioactivity using Topcount scintillation counting. […]

Assay [1] deals with T2, Human 5-HT1A receptor (Homo sapiens, UniProt P08908).
T2 sequence (P08908 1-422): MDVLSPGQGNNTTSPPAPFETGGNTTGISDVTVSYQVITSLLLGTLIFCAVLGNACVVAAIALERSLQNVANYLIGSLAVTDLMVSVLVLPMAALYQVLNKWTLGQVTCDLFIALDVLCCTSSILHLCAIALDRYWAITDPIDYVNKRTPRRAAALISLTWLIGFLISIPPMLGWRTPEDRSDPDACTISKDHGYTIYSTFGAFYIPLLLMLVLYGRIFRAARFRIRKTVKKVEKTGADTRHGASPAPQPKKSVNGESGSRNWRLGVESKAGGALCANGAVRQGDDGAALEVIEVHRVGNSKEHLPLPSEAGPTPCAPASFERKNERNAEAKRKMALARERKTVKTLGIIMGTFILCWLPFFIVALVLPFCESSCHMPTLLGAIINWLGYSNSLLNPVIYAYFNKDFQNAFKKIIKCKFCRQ
Kind of assay: Human 5-HT1A receptor functional potency, GTPγS binding protocol. The assay is classed as biochemical. On the set-up: expressed in transfected cells. The following applies: GTPγS binding, membranes of HEK293 cells transfected with human 5-HT1A; assay a); read-out: fpKi against 5-HT1A (converted). How it is done: a) Human 5-HT1A Receptor Functional Potency
The functional potency of the compounds of the invention for the 5-HT1A receptor may be determined by the following GTPγS binding protocol. Cells used in the study are CHO Cells and Human Embryo Kidney (HEK293). Transfect cells with DNA coding for human receptor as follows: HEK293—5-HT1A. Initially dissolve test compounds in 100% dimethyl sulfoxide to a concentration of 10 mM. Serially dilute the test compounds in 100% dimethyl sulphoxide using a Biomek FX in 384 well assay plates, so that the final top concentration of test compound is 3 μM in the assay. Add the test compound at 1.0% total assay volume (TAV) to a solid, white, 384 well assay plate (Griener). Add 50% TAV of precoupled (for 60 mins @ RT) membranes (6 ug/well), Wheatgerm Agglutinin Polystyrene Scintillation Proximity Assay beads (RPNQ0260 Amersham International) (0.25 mg/well) in 20 mM HEPES pH 7.4, 100 mM NaCl, 3 mM MgCl2 and 10 μM GDP and saponin 60 m/well FAC was also added. The third addition may be either a 20% TAV addition of either; buffer for agonist format, or EC80 final assay concentration (FAC) of agonist, prepared in assay buffer, 5HT, for antagonist format.
Start the assay by the addition of 29% TAV of GTPγS 0.38 nM FAC.
After all additions, incubate the assay plates at RT for 2-3 hours. […] Read the assay plates between 3-6 hours after the final addition.
A general note: Binding of GTPγS marks nucleotide exchange on a G protein.

The target of assay [2] is T2, Human 5-HT1A receptor. Kind of assay: Human 5-HT1A receptor affinity, [3H]WAY100635 radioligand binding. On the set-up: expressed in transfected cells; host or cells: CHO. The following applies: CHO cell membranes expressing 5-HT1A, [3H]WAY100635 0.5 nM, 37° C. 45 minutes; assay b); read-out: pKi against 5-HT1A (converted). How it is done:
as §1, §2, §3

T1 sequence (P28222 whole entry): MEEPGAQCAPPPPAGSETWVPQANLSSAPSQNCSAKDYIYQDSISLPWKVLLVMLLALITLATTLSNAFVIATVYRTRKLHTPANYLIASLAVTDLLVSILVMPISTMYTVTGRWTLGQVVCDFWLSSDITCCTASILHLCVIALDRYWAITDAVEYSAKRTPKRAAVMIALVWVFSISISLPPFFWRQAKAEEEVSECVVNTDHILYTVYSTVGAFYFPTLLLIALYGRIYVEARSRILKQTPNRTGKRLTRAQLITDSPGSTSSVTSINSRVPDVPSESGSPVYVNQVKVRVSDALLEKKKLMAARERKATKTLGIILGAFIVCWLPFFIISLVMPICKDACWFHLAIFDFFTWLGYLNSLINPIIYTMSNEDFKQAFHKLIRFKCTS

Consider `COc1cccn(CCCCN2CCN(c3cccc4nc(C)ccc34)CC2)c1=O` [compound of formula (I), 3-(methyloxy)-1-{4-[4-(2-methyl-5-quinolinyl)-1-piperazinyl]butyl}-2(1H)-pyridinone], for which the Ki is 200 nM at Human 5-HT1B receptor, 0.501 nM at Human 5-HT1A receptor [1] and 0.501 nM on Human 5-HT1A receptor [2].

(Values after patent US7928108B2, “Pyridinone derivative for the treatment of premature ejaculation” (Glaxo Group Limited, priority 2007, dated 2011).)
